In patent publication US9615576B2, “Pesticidal compositions and processes related thereto” (Dow AgroSciences LLC, priority 2011, dated 2017) one finds mortality data, which are given here for 44 compounds.

What is called mortality is the share of the test organisms that died.

Assay [1] has as its system Beet Armyworm (BAW) (Spodoptera exigua). Put plainly: Bioassays on Beet Armyworm (BAW), 128-well diet tray assay. The format is in vivo. The settings on record: 168 h, 50 μg/cm^2 test compound on artificial diet, second instar larvae, 25° C., five to seven days, average of eight wells, read-out: BAW Rating (% mortality). The protocol: (§1) Certain molecules disclosed in this document were tested against BAW and CEW using procedures described in the following examples. In the reporting of the results, the “BAW & CEW Rating Table” was used (See Table Section).
Bioassays on BAW (Spodoptera exigua)
Bioassays on BAW were conducted using a 128-well diet tray assay. one to five second instar BAW larvae were placed in each well (3 mL) of the diet tray that had been previously filled with 1 mL of artificial diet to which 50 μg/cm^2 of the test compound (dissolved in 50 μL of 90:10 acetone-water mixture) had been applied (to each of eight wells) and then allowed to dry. Trays were covered with a clear self-adhesive cover, and held at 25° C., 14:10 light-dark for five to seven days. Percent mortality was recorded for the larvae in each well; activity in the eight wells was then averaged. The results are indicated in the table entitled “Table 3: Assay Results” (See Table Section).

Assay [2] concerns Corn Earworm (CEW) (Helicoverpa zea). Nature of the assay: Bioassays on Corn Earworm (CEW), 128-well diet tray assay. It is filed as in vivo. The settings on record: 168 h, 50 μg/cm^2 test compound on artificial diet, second instar larvae, 25° C., five to seven days, average of eight wells, read-out: CEW Rating (% mortality). The protocol:
as §1
Bioassays on CEW (Helicoverpa zea)
Bioassays on CEW were conducted using a 128-well diet tray assay. one to five second instar CEW larvae were placed in each well (3 mL) of the diet tray that had been previously filled with 1 mL of artificial diet to which 50 μg/cm^2 of the test compound (dissolved in 50 μL of 90:10 acetone-water mixture) had been applied (to each of eight wells) and then allowed to dry. Trays were covered with a clear self-adhesive cover, and held at 25° C., 14:10 light-dark for five to seven days. Percent mortality was recorded for the larvae in each well; activity in the eight wells was then averaged. The results are indicated in the table entitled “Table 3: Assay Results” (See Table Section).

On to `CNC(=O)c1ccc(/C=C/C(c2cc(Cl)cc(Cl)c2)C(F)(F)F)cc1` (stereo not shown) [AC1], for which the mortality at 50 µg/cm2 in assay [1] and in assay [2] was 0% in each case.

Regarding `CN(C)C(=O)c1ccc(/C=C/C(c2cc(Cl)cc(Cl)c2)C(F)(F)F)cc1` (stereo not shown) [AC3], the mortality at 50 µg/cm2 in assay [1] and in assay [2] was 0% throughout.

Take `O=C(NCC(F)(F)F)c1ccc(/C=C/C(c2cc(Cl)cc(Cl)c2)C(F)(F)F)cc1` (stereo not shown) [AC4]: the mortality at 50 µg/cm2 in assay [1] is 0%; in assay [2], 50 to 100%.

For the compound `O=C(c1ccc(/C=C/C(c2cc(Cl)cc(Cl)c2)C(F)(F)F)cc1)N1CCOCC1` (stereo not shown) [AC5], the mortality at 50 µg/cm2 in assay [1] and in assay [2] was 0% throughout.

On to `Cc1cc(/C=C/C(c2cc(Cl)cc(Cl)c2)C(F)(F)F)ccc1C(=O)NCC(F)(F)F` (stereo not shown) [AC6, (E)-4-(3-(3,5-dichlorophenyl)-4,4,4-trifluorobut-1-enyl)-2-methyl-N-(2,2,2-trifluoroethyl)benzamide], for which the mortality at 50 µg/cm2 in assay [1] is 0%; in assay [2], 50 to 100%.

In the case of `Cc1cc(/C=C/C(c2cc(Cl)cc(Cl)c2)C(F)(F)F)ccc1C(=O)NCc1ccc(Cl)nc1` (stereo not shown) [AC7], the mortality at 50 µg/cm2 in assay [1] and in assay [2] was 50 to 100% throughout.

Turning to `Cc1cc(/C=C/C(c2cc(Cl)cc(Cl)c2)C(F)(F)F)ccc1C(=O)N1CCCC1=O` (stereo not shown) [AC8], the mortality at 50 µg/cm2 in assay [1] is 0%; in assay [2] it was 0 to 50%.

On to `Cc1cc(/C=C/C(c2cc(Cl)cc(Cl)c2)C(F)(F)F)ccc1C(=O)NCc1ccccc1F` (stereo not shown) [AC9], for which the mortality at 50 µg/cm2 in assay [1] and in assay [2] was 50 to 100% throughout.

Regarding `Cc1cc(/C=C/C(c2cc(Cl)cc(Cl)c2)C(F)(F)F)ccc1C(=O)NC1CSC1` (stereo not shown) [AC10], the mortality at 50 µg/cm2 in assay [1] and in assay [2] was 50 to 100% throughout.

On to `Cc1cc(/C=C/C(c2cc(Cl)cc(Cl)c2)C(F)(F)F)ccc1C(=O)NCc1ccccc1` (stereo not shown) [AC11], for which the mortality at 50 µg/cm2 in assay [1] and in assay [2] was 50 to 100% throughout.

As to `Cc1cc(/C=C/C(c2cc(Cl)cc(Cl)c2)C(F)(F)F)ccc1C(=O)NCc1ccccn1` (stereo not shown) [AC12], the mortality at 50 µg/cm2 in assay [1] and in assay [2] was 50 to 100% each time.

As for `Cc1cc(/C=C/C(c2cc(Cl)cc(Cl)c2)C(F)(F)F)ccc1C(=O)NC1CS(=O)(=O)C1` (stereo not shown) [AC13], the mortality at 50 µg/cm2 in assay [1] and in assay [2] was 50 to 100% throughout.

In the case of `Cc1cc(/C=C/C(c2cc(Cl)cc(Cl)c2)C(F)(F)F)ccc1C(=O)NCc1cccnc1` (stereo not shown) [AC14], the mortality at 50 µg/cm2 in assay [1] fell in the range of 50 to 100%; in assay [2], 0 to 50%.

For the compound `Cc1cc(/C=C/C(c2cc(Cl)cc(Cl)c2)C(F)(F)F)ccc1C(=O)NCc1cnc(Cl)s1` (stereo not shown) [AC15], the mortality at 50 µg/cm2 in assay [1] and in assay [2] was 50 to 100% in each case.

With `Cc1cc(/C=C/C(c2cc(Cl)cc(Cl)c2)C(F)(F)F)ccc1C(=O)NC(C)(C)c1ccccn1` (stereo not shown) [AC16], the mortality at 50 µg/cm2 in assay [1] and in assay [2] was 50 to 100% in each case.

As to `Cc1cc(/C=C/C(c2cc(Cl)cc(Cl)c2)C(F)(F)F)ccc1C(=O)NNc1ccccc1F` (stereo not shown) [AC17], the mortality at 50 µg/cm2 in assay [1] and in assay [2] was 50 to 100% each time.

For `Cc1cc(/C=C/C(c2cc(Cl)cc(Cl)c2)C(F)(F)F)ccc1C(=O)NCc1ncccn1` (stereo not shown) [AC18], the mortality at 50 µg/cm2 in assay [1] and in assay [2] was 50 to 100% each time.

Take `Cc1cc(/C=C/C(c2cc(Cl)cc(Cl)c2)C(F)(F)F)ccc1C(=O)NCC1CCOC1` (stereo not shown) [AC19]: the mortality at 50 µg/cm2 in assay [1] and in assay [2] was 0% each time.

`Cc1cc(/C=C/C(c2cc(Cl)cc(Cl)c2)C(F)(F)F)ccc1C(=O)NCc1ccoc1` (stereo not shown) [AC20]: the mortality at 50 µg/cm2 in assay [1] and in assay [2] was 50 to 100% in each case.

With `Cc1cc(/C=C/C(c2cc(Cl)cc(Cl)c2)C(F)(F)F)ccc1C(=O)NOCc1ccc(Cl)nc1` (stereo not shown) [AC21], the mortality at 50 µg/cm2 in assay [1] and in assay [2] was 0% in each case.

With `Cc1cc(/C=C/C(c2cc(Cl)c(Cl)c(Cl)c2)C(F)(F)F)ccc1C(=O)NCc1ccc(Cl)nc1` (stereo not shown) [AC22], the mortality at 50 µg/cm2 in assay [1] and in assay [2] was 50 to 100% each time.

As to `Cc1cc(/C=C/C(c2cc(Cl)c(Cl)c(Cl)c2)C(F)(F)F)ccc1C(=O)NC1CSC1` (stereo not shown) [AC23], the mortality at 50 µg/cm2 in assay [1] and in assay [2] was 50 to 100% each time.

In the case of `Cc1cc(/C=C/C(c2cc(Cl)cc(Cl)c2)C(F)(F)F)ccc1C(=O)NCC(=O)NCC(F)(F)F` (stereo not shown) [AC24], the mortality at 50 µg/cm2 in assay [1] and in assay [2] was 50 to 100% in each case.

With `Cc1cc(/C=C/C(c2cc(Cl)c(Cl)c(Cl)c2)C(F)(F)F)ccc1C(=O)NC1CS(=O)(=O)C1` (stereo not shown) [AC25], the mortality at 50 µg/cm2 in assay [1] and in assay [2] was 50 to 100% each time.

For the compound `Cc1cc(/C=C/C(c2cc(Cl)c(Cl)c(Cl)c2)C(F)(F)F)ccc1C(=O)NCc1cnc(Cl)s1` (stereo not shown) [AC26], the mortality at 50 µg/cm2 in assay [1] and in assay [2] was 50 to 100% each time.

Consider `Cc1cc(/C=C/C(c2cc(Cl)c(Cl)c(Cl)c2)C(F)(F)F)ccc1C(=O)NC(C)(C)c1ccccn1` (stereo not shown) [AC27], for which the mortality at 50 µg/cm2 in assay [1] and in assay [2] was 50 to 100% each time.

As to `O=C(NCc1ccc(Cl)nc1)c1ccc(/C=C/C(c2cc(Cl)c(Cl)c(Cl)c2)C(F)(F)F)cc1Cl` (stereo not shown) [AC28], the mortality at 50 µg/cm2 in assay [1] and in assay [2] was 50 to 100% in each case.

As for `O=C(NC1CSC1)c1ccc(/C=C/C(c2cc(Cl)c(Cl)c(Cl)c2)C(F)(F)F)cc1Cl` (stereo not shown) [AC29], the mortality at 50 µg/cm2 in assay [1] and in assay [2] was 50 to 100% throughout.

Take `O=C(NC1CS(=O)(=O)C1)c1ccc(/C=C/C(c2cc(Cl)c(Cl)c(Cl)c2)C(F)(F)F)cc1Cl` (stereo not shown) [AC30]: the mortality at 50 µg/cm2 in assay [1] and in assay [2] was 50 to 100% throughout.

With `O=C(NCc1ccc(Cl)nc1)c1ccc(/C=C/C(c2cc(Cl)c(Cl)c(Cl)c2)C(F)(F)F)cc1Br` (stereo not shown) [AC31], the mortality at 50 µg/cm2 in assay [1] and in assay [2] was 50 to 100% in each case.

For `O=C(NC1CSC1)c1ccc(/C=C/C(c2cc(Cl)c(Cl)c(Cl)c2)C(F)(F)F)cc1Br` (stereo not shown) [AC32], the mortality at 50 µg/cm2 in assay [1] and in assay [2] was 50 to 100% in each case.

Regarding `O=C(NC1CS(=O)(=O)C1)c1ccc(/C=C/C(c2cc(Cl)c(Cl)c(Cl)c2)C(F)(F)F)cc1Br` (stereo not shown) [AC33], the mortality at 50 µg/cm2 in assay [1] and in assay [2] was 50 to 100% throughout.

Consider `O=C(NC1CSC1)c1ccc(/C=C/C(c2cc(Cl)c(Cl)c(Cl)c2)C(F)(F)F)cc1C(F)(F)F` (stereo not shown) [AC34], for which the mortality at 50 µg/cm2 in assay [1] and in assay [2] was 50 to 100% throughout.

As for `O=C(NC1CS(=O)(=O)C1)c1ccc(/C=C/C(c2cc(Cl)c(Cl)c(Cl)c2)C(F)(F)F)cc1C(F)(F)F` (stereo not shown) [AC35], the mortality at 50 µg/cm2 in assay [1] and in assay [2] was 50 to 100% throughout.

On to `O=C(NCc1ccc(Cl)nc1)c1ccc(/C=C/C(c2cc(Cl)c(Cl)c(Cl)c2)C(F)(F)F)cc1C(F)(F)F` (stereo not shown) [AC36], for which the mortality at 50 µg/cm2 in assay [1] and in assay [2] was 50 to 100% each time.

For the compound `Cc1cc(/C=C/C(c2ccc(Cl)c(Cl)c2)C(F)(F)F)ccc1C(=O)NCc1ccc(Cl)nc1` (stereo not shown) [AC37], the mortality at 50 µg/cm2 in assay [1] and in assay [2] was 50 to 100% throughout.

On to `Cc1cc(/C=C/C(c2cc(Cl)c(F)c(Cl)c2)C(F)(F)F)ccc1C(=O)NCc1ccc(Cl)nc1` (stereo not shown) [AC38], for which the mortality at 50 µg/cm2 in assay [1] and in assay [2] was 50 to 100% each time.

For the compound `Cc1cc(/C=C/C(c2cc(Cl)cc(Cl)c2)C(F)(F)F)ccc1C(=O)NCc1cncnc1` (stereo not shown) [AC39, 4-((E)-3-(3,5-dichlorophenyl)-4,4,4-trifluorobut-1-enyl)-2-methyl-N-((pyrimidin-5-yl)methyl)benzamide], the mortality at 50 µg/cm2 in assay [1] and in assay [2] was 50 to 100% in each case.

For `Cc1cc(/C=C/C(c2cc(Cl)cc(Cl)c2)C(F)(F)F)ccc1C(=O)NCC(=O)NC1CC1` (stereo not shown) [AC40], the mortality at 50 µg/cm2 in assay [1] and in assay [2] was 50 to 100% each time.

Take `Cc1cc(/C=C/C(c2cc(Cl)cc(Cl)c2)C(F)(F)F)ccc1C(=O)NCC(=O)NC1CSC1` (stereo not shown) [AC41]: the mortality at 50 µg/cm2 in assay [1] is 50 to 100%; in assay [2], 0%.

On to `Cc1cc(/C=C/C(c2cc(Cl)cc(Cl)c2)C(F)(F)F)ccc1C(=O)NCc1nc2ccccc2s1` (stereo not shown) [AC42], for which the mortality at 50 µg/cm2 in assay [1] was 50 to 100%; in assay [2], 0%.

As to `Cc1cc(/C=C/C(c2cc(Cl)cc(Cl)c2)C(F)(F)F)ccc1C(=O)NCc1cnccn1` (stereo not shown) [AC43], the mortality at 50 µg/cm2 in assay [1] and in assay [2] was 50 to 100% each time.

Regarding `Cc1cc(/C=C/C(c2cc(Cl)cc(Cl)c2)C(F)(F)F)ccc1C(=O)NC(C)c1ccc(Cl)nc1` (stereo not shown) [AC44], the mortality at 50 µg/cm2 in assay [1] and in assay [2] was 50 to 100% throughout.

Turning to `Cc1cc(/C=C/C(c2cc(Cl)cc(Cl)c2)C(F)(F)F)ccc1C(=O)NN(C)c1ccccc1F` (stereo not shown) [AC45], the mortality at 50 µg/cm2 in assay [1] and in assay [2] was 50 to 100% in each case.
